From paper PMC2358886, “Evolution of pharmacologic specificity in the pregnane X receptor” (BMC Evolutionary Biology, 2008)
“Also recorded” adds a separate entry of the source. Like-named read-outs stand apart in the source and are kept apart here.

Assays:
Ciona VDR/PXR = assay: Activation of Ciona VDR/PXR (LBD/GAL4 chimeric receptor) luciferase reporter assay; assay type: cell-based, Ciona intestinalis; details: screening, reference maximal activator 20 μM 6-formylindolo-[3,2-b]carbazole
Description: The LBD of Ciona VDR/PXR was cloned from cDNA fragments generously provided by Professors Yuji Kohara and Norituki Satoh, and then inserted into the PM2-GAL4 plasmid to create an LBD/GAL4 chimeric receptor.
The LBD of Xenopus tropicalis (Western clawed frog) PXR (xtPXR) was cloned by PCR from RNA extracted from ovary of an adult female frog. Ciona VDR/PXR was cloned from cDNA fragments ciem829d05 and cilv048e18 provided by Professor Yuji Kohara (Center for Genetic Resource Information, National Institute of Genetics, Research Organization of Information and Systems, Mishima, Japan) and Professor Noriyuki Satoh (Kyoto University, Kyoto, Japan), with analysis of the cDNA clones supported by Grant-in-aid for Scientific Research on Priority Area "Genome" of Ministry of Education, Culture, Sports, Science and Technology, Japan.
The creation of a HepG2 (human liver) cell line stably expressing the human Na^+-taurocholate cotransporter (NTCP) has been previously reported. HepG2-NTCP cells were grown in modified Eagle's medium-α containing 10% fetal bovine serum and 1% penicillin/streptomycin (Invitrogen, Carlsbad, CA, USA). Plasmids containing cDNAs for 8 PXRs from 7 species (human, mouse, rat, rabbit, chicken [also called chicken X receptor, CXR], African clawed frog [also termed Xenopus laevis benzoate X receptors α and β, BXRα and BXRβ ], zebrafish), as well as the reporter constructs tk-UAS-Luc and CYP3A4-PXRE-Luc, and 'empty' vectors pCDNA, PsG5, and PM2 were generously provided by SA Kliewer, JT Moore, and LB Moore (GlaxoSmithKline, Research Triangle Park, NC, USA). […] For the full-length expression vectors, the reporter plasmid was CYP3A4-PXRE-Luc, a construct that contains a promoter element from CYP3A4 (recognized by PXR DBDs) driving luciferase expression. For the GAL4/LBD expression constructs, the reporter plasmid was tk-UAS-Luc, which contains GAL4 DNA binding elements driving luciferase expression. The following transfection ratios of reporter, receptor, and β-galactosidase plasmids were used (ng/well): human, mouse, rabbit, and rat PXRs – 25/2.7/20; chicken PXR – 10/1/20; Xenopus tropicalis PXR, zebrafish PXR, and Ciona VDR/PXR – 75/50/20.
The PXR activation assay was a luciferase-based reporter assay. On day 1, 30,000 cells/well were seeded onto 96-well white opaque plates (Corning-Costar, Corning, NY, USA). On day 2, cells were transfected using the calcium phosphate precipitation method with expression vector or 'empty' control vector and luciferase reporter plasmid. On day 3, the cells were washed and then incubated with medium containing charcoal-dextran treated fetal bovine serum (Hyclone, Logan, UT, USA) and drugs or vehicle. On day 4, the cells were washed and the medium replaced with serum-free medium. […]

rat PXR [1] = target: T1, rat PXR (Rattus norvegicus, UniProt Q9R1A7)
T1 sequence (Q9R1A7 1-431): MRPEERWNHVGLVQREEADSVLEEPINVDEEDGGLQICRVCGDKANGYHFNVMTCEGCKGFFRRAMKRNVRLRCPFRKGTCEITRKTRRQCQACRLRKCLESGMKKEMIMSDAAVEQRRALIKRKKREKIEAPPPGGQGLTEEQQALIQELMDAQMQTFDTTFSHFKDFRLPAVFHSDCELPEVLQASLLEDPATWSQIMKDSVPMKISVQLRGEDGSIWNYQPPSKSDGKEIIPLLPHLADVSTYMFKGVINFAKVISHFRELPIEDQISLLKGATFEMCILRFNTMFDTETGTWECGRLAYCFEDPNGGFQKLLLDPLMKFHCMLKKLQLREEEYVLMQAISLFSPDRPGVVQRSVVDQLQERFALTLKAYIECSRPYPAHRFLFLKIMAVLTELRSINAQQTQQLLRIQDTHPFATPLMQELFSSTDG

chicken PXR [2] = target: T2, chicken PXR (Gallus gallus, UniProt Q9DFH3); details: for Chicken PXR Activity: -log(EC50), EC50 in molar units
T2 sequence (Q9DFH3 1-391): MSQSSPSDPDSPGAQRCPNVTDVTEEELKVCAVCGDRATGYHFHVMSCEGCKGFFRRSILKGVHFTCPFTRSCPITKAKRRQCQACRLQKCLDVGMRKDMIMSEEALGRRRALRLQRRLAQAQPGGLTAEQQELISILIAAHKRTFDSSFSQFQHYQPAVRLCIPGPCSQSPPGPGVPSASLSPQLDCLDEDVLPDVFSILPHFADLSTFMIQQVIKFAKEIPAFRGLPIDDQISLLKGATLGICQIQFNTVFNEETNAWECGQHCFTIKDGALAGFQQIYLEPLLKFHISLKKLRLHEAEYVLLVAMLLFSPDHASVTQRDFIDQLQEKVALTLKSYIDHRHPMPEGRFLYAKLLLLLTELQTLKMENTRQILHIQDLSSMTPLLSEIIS

mouse PXR = target: T3, mouse PXR (Mus musculus, UniProt O54915)
T3 sequence (O54915 1-431): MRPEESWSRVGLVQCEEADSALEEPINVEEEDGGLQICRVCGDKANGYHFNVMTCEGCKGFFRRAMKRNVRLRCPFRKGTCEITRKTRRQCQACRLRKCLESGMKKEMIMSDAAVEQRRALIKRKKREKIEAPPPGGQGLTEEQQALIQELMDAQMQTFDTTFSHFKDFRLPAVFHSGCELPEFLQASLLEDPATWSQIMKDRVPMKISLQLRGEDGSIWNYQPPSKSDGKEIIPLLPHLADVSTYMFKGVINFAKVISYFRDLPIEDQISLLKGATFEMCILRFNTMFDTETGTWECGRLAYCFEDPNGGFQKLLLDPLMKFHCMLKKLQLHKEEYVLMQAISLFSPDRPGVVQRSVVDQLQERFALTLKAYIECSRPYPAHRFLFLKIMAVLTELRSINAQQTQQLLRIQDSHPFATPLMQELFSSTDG

rabbit PXR [3] = target: T4, rabbit PXR (Oryctolagus cuniculus, UniProt Q9TU02)
T4 sequence (Q9TU02 1-411): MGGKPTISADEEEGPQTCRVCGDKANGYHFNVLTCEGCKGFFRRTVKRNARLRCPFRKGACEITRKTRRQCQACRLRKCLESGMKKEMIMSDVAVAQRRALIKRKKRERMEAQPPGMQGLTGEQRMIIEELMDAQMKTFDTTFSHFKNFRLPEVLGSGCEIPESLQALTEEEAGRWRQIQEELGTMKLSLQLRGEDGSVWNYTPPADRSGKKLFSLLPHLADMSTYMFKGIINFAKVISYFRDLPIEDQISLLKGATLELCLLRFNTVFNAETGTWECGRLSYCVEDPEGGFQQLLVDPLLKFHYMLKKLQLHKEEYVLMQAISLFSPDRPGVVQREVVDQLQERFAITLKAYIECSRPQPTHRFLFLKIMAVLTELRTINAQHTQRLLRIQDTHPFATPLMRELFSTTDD

chicken PXR [4] = target: T2, chicken PXR; assay: cell-based
zebrafish PXR [5] = target: T5, zebrafish PXR (Danio rerio, UniProt A5WYG8)
T5 sequence (A5WYG8 144-430): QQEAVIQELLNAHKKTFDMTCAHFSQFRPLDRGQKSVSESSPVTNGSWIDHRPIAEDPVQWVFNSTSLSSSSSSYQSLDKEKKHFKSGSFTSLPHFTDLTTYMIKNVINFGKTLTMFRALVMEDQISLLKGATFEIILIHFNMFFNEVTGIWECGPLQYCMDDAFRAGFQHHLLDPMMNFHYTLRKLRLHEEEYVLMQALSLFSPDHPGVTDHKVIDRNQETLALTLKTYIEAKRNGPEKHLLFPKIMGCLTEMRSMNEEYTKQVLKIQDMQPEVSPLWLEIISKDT

rabbit PXR [6] = target: T4, rabbit PXR; assay: PXR activation luciferase reporter assay, rabbit PXR; details: -log(EC50), EC50 in molar units
human PXR [7] = target: T6, human PXR (Homo sapiens, UniProt O75469)
T6 sequence (O75469 1-434): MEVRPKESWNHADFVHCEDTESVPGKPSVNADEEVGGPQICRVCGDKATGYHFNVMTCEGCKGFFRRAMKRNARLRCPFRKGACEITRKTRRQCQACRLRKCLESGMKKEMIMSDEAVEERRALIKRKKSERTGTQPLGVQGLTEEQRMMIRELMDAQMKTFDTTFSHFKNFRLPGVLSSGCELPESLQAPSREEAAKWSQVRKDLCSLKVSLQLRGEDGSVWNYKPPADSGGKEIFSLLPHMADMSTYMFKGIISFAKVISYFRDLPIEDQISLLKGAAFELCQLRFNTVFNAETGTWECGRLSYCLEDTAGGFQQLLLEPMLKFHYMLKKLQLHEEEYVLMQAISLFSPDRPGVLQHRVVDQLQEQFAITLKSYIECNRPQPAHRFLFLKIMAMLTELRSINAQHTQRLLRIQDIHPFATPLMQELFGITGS

chicken PXR [8] = target: T2, chicken PXR; assay: in vitro
Xenopus tropicalis PXR = assay: Activation of Xenopus tropicalis PXR (GAL4-LBD chimeric construct) luciferase reporter assay; assay type: cell-based
Description: Cloning of the LBD of this PXR from adult female ovary and expression in a GAL4-LBD chimeric construct allowed for determination of ligand specificity.
The PXR activation assay was a luciferase-based reporter assay [17, 45]. On day 1, 30,000 cells/well were seeded onto 96-well white opaque plates (Corning-Costar, Corning, NY, USA). On day 2, cells were transfected using the calcium phosphate precipitation method with expression vector or 'empty' control vector and luciferase reporter plasmid. On day 3, the cells were washed and then incubated with medium containing charcoal-dextran treated fetal bovine serum (Hyclone, Logan, UT, USA) and drugs or vehicle. […]

rat PXR [9] = target: T1, rat PXR; assay: cell-based
zebrafish PXR [10] = target: T5, zebrafish PXR; assay: cell-based
human PXR [11] = target: T6, human PXR; assay: PXR activation luciferase reporter assay, human PXR in HepG2-NTCP cells; details: hPXR Activity, -log(EC50), EC50 in molar units, activation of human PXR
[12] = -log(EC50), EC50 in molar units, activation of zebrafish PXR
[13] = -log(EC50), EC50 in molar units

## 6-formylindolo-[3,2-b]carbazole
Ciona VDR/PXR
  Activation of Ciona VDR/PXR (in words): low micromolar range; also recorded: robustly activated

## C[C@H](CCC(=O)O)[C@H]1CC[C@H]2[C@@H]3C[C@@H](O)[C@@H]4C[C@H](O)CC[C@]4(C)[C@H]3CC[C@]12C [BI004, Murideoxycholic acid]
Rat PXR [1]
  Rat PXR Activity: 4.80
Chicken PXR [2]
  Chicken PXR Activity: No effect
Mouse PXR
  Mouse PXR Activity: 5.09
Rabbit PXR [3]
  Rabbit PXR Activity: 4.52

## C[C@H](CCC(=O)O)[C@H]1CC[C@H]2[C@@H]3[C@H](O)C[C@@H]4C[C@H](O)CC[C@]4(C)[C@H]3CC[C@]12C [BI005, Chenodeoxycholic acid]
Chicken PXR [4]
  EC50: 20 µM
Rat PXR [1]
  Rat PXR Activity: No effect
Chicken PXR [2]; chicken
  Chicken PXR efficacy, ε: 4.70 (ε = 0.36)
Rabbit PXR [3]; rabbit
  Rabbit PXR efficacy, ε: 4.70 (ε = 0.42)

## C[C@H](CCC(O)C(CO)COS(=O)(=O)O)[C@H]1CC[C@H]2[C@@H]3[C@H](O)C[C@@H]4C[C@H](O)CC[C@]4(C)[C@H]3C[C@H](O)[C@]12C (stereo partly drawn) [BI034, 5β-Cholestan-3α,7α,12α,24,26-pentol-27-sulfate]
Zebrafish PXR [5]
  zfPXR Efficacy: 0.13
Zebrafish PXR [5]; [12]
  zfPXR Activity: 4.35
Zebrafish PXR [5]; bile salts
  Activation of zebrafish PXR (in words): activated
Rat PXR [1]
  Rat PXR efficacy, ε: 0.85
Rat PXR [1]; [13]
  Rat PXR Activity: 4.40
Chicken PXR [2]
  Chicken PXR efficacy, ε: 0.88
  Chicken PXR Activity: 4.37
Mouse PXR
  Mouse PXR efficacy, ε: 0.85
Mouse PXR; [13]
  Mouse PXR Activity: 4.44
Rabbit PXR [6]
  Rabbit PXR Activity: 4.09
Rabbit PXR [3]
  Rabbit PXR efficacy, ε: 1.93
Human PXR [7]
  hPXR Efficacy: 0.39
HepG2 cells
  Toxicity: 200 µM

## CC(CCC[C@@H](C)[C@H]1CC[C@H]2[C@@H]3[C@H](O)C[C@@H]4C[C@H](O)CC[C@]4(C)[C@H]3C[C@H](O)[C@]12C)C(=O)NCCS(=O)(=O)O (stereo partly drawn) [BI038, 3α,7α,12αtTrihydroxy-5β-cholestan-27-oic acid, taurine conjugated]
Zebrafish PXR [5]; [12]
  zfPXR Activity: None
Rat PXR [1]
  Rat PXR Activity: No effect
Chicken PXR [2]
  Chicken PXR Activity: No effect
Mouse PXR
  Mouse PXR Activity: No effect
Rabbit PXR [3]
  Rabbit PXR Activity: No effect
Human PXR [7]
  hPXR Activity: None
HepG2 cells
  Toxicity: 200 µM

## CCCCOC(=O)c1ccc(N)cc1 [MI4, n-Butyl-4-aminobenzoate]
Zebrafish PXR [5]; zebrafish
  zfPXR Efficacy: 0.69
Chicken PXR [8]
  EC50: > 100 µM
Xenopus tropicalis PXR
  Activation of Xenopus tropicalis PXR (in words): activates
Rat PXR [9]
  EC50: > 100 µM
Human PXR [7]; human
  hPXR Efficacy: 1.35
Zebrafish PXR [10]
  EC50: 13.8 µM
Ciona VDR/PXR; listed as n-butyl p-aminobenzoate
  Activation of Ciona VDR/PXR (in words): Weaker activation
Ciona VDR/PXR; listed as n-butyl-p-aminobenzoate
  Activation of Ciona VDR/PXR (in words): micromolar range
HepG2 cells; human, 24 hr
  Toxicity: 100 µM

## NC(=O)N1c2ccccc2C=Cc2ccccc21 [MI7, Carbamazepine]
Zebrafish PXR [5]
  zfPXR Activity: None
Human PXR [11]
  EC50: 63.1 µM
Ciona VDR/PXR
  Activation of Ciona VDR/PXR (in words): micromolar range; also recorded: Weaker activation
HepG2 cells; human, 24 hr
  Toxicity: 200 µM
